Test in all cases: NCI-60 cell line screen, 48 h
Experiment [1] deals with MDA-MB-231 breast.
Experiment [2] relates to U251 CNS.
The subject of experiment [3] is NCI-H226 lung.
In experiment [4] the test system is ACHN renal.
For experiment [5], the system named is LOX IMVI melanoma.
In experiment [6] the test system is RXF 393 renal.
The test system of experiment [7] is NCI-H460 lung.
For experiment [8], the system named is UO-31 renal.

SMILES strings stand for the structures.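 Growth conditions: 96-well plates. Treatment: test compound, 48 hours, 5 concentrations. Analysis: linear interpolation between bracketing concentrations; unreached endpoints set to highest concentration. GI50: concentration for 50% inhibition of growth. At the TGI there is no net growth.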

For `O=C(CCl)Nc1cc(Cl)c(Cl)cc1Cl`, the TGI in experiment [1] worked out at 2.9 µM; in experiment [2], 3.94 µM; in experiment [3], 2.48 µM; in experiment [4], 4.58 µM; in experiment [5] it was 3.03 µM; in experiment [6] it was 4.58 µM. The same molecule came in with a TGI in experiment [7] of 7.04 µM.
In the case of `O=C1C=CC(=Nc2cccc3c(N=C4C=CC(=O)O4)cccc23)O1`, the TGI is more than 100 µM in experiment [1]; more than 100 µM in experiment [2]; more than 100 µM in experiment [8]; more than 100 µM in experiment [3]; 78.5 µM in experiment [4]; 91.2 µM in experiment [5]. The TGI in experiment [6] was 50 µM; in experiment [7] it was more than 100 µM.
`CC[C@]1(O)CC2CN(CCc3c([nH]c4ccccc34)[C@@](C(=O)OC)(c3cc4c(cc3OC)N(C=O)[C@H]3[C@@](O)(C(=O)OC)[C@H](OC(C)=O)[C@]5(CC)C=CCN6CC[C@]43[C@@H]65)C2)C1` (some centres undefined): the GI50 is less than 0.005 µM in experiment [1]; less than 0.005 µM in experiment [2]; 0.519 µM in experiment [8]; less than 0.005 µM in experiment [3]; 0.235 µM in experiment [4]; 0.00808 µM in experiment [5]. The GI50 in experiment [6] and in experiment [7] was less than 0.005 µM in each case. In addition, the TGI in experiment [1] is 2.73 µM; in experiment [8], more than 50 µM; in experiment [3], 0.0319 µM; in experiment [4] it was more than 50 µM; in experiment [5], more than 50 µM; in experiment [6] it was more than 50 µM. The molecule also yielded a TGI in experiment [7] of more than 50 µM.
Consider `C(=Nc1cnc2ccccc2c1)c1ccc2ccccc2n1`, for which the TGI in experiment [1], in experiment [2], in experiment [8], in experiment [3], in experiment [4] and in experiment [5] was more than 100 µM each time. The TGI in experiment [6] and in experiment [7] was more than 100 µM each time.
As to `CCN(CC)CCN1C(=O)C2C3C(=O)CC(C)(CC3C)C2C1=O` (centres undefined), the GI50 in experiment [1], in experiment [2], in experiment [8], in experiment [3], in experiment [4] and in experiment [5] was more than 100 µM throughout. In addition, the GI50 in experiment [6] was more than 100 µM. Further, the TGI in experiment [1], in experiment [2], in experiment [8], in experiment [3], in experiment [4] and in experiment [5] was more than 100 µM each time. Further, in experiment [6], the TGI was more than 100 µM.
As for `COc1ccc(Cl)cc1Nc1nc(C(F)(F)F)ccc1C(=O)N/N=C/c1cccnc1`, the GI50 in experiment [1] was 4.51 µM; in experiment [2], 2.4 µM; in experiment [8], 4.1 µM; in experiment [3] it was 3.49 µM; in experiment [4] it was 4.04 µM; in experiment [5], 3.17 µM. Also, the GI50 in experiment [7] is 4.03 µM. The TGI in experiment [1], in experiment [2], in experiment [8], in experiment [3], in experiment [4] and in experiment [5] was more than 100 µM in each case. The molecule also showed a TGI in experiment [7] of more than 100 µM.
Consider `C[C@H](CS)C(=O)N1c2ccccc2C[C@H]1C(=O)O`, for which the TGI in experiment [1], in experiment [2], in experiment [8], in experiment [3], in experiment [4] and in experiment [7] was more than 100 µM in each case.
In the case of `Clc1ccc2ncc(-c3cccc(NC4CNC4)n3)n2c1`, the GI50 in experiment [1] was 6.48 µM; in experiment [2], 6.85 µM; in experiment [8] it was 5.12 µM; in experiment [4] it was 1.91 µM; in experiment [5] it was 2.47 µM; in experiment [6], 1.45 µM. In addition, the GI50 in experiment [7] was 2.96 µM. The TGI in experiment [1] was 75.1 µM; in experiment [2], 48.7 µM; in experiment [8] it was 88.5 µM; in experiment [4], more than 100 µM; in experiment [5], 13.8 µM; in experiment [6], 11.6 µM. Besides, in experiment [7], the TGI came to 13.5 µM.
With `O=C(Nc1ccccc1C(F)(F)F)c1ccc(NC2=C(Cl)C(=O)N(Cc3ccccc3)C2=O)cc1`, the GI50 in experiment [1] is 12.8 µM; in experiment [2], 23.5 µM; in experiment [3], 13.6 µM; in experiment [4] it was 33.7 µM; in experiment [5], 18.8 µM; in experiment [6], 13.8 µM. Further, the GI50 in experiment [7] is 33.2 µM. Further, the TGI in experiment [1] is 38.4 µM; in experiment [2], more than 100 µM; in experiment [3], 92.2 µM; in experiment [4], more than 100 µM; in experiment [5] it was more than 100 µM; in experiment [6] it was 37.7 µM. For the same molecule, in experiment [7], the TGI is more than 100 µM.
For `O=Cc1c(-c2ccccc2)[nH]c2ccccc2c1=O`, the TGI in experiment [1], in experiment [2], in experiment [8], in experiment [3], in experiment [4] and in experiment [5] was more than 100 µM in each case. For the same molecule, the TGI in experiment [7] is more than 100 µM.
With `Cc1ccc(-c2nc(N3CCNCC3)c3oc(-c4ccccc4)nc3n2)cc1`, the GI50 in experiment [1] was 1.62 µM; in experiment [2], 1.79 µM; in experiment [8], 1.43 µM; in experiment [4], 1.75 µM; in experiment [5], 1.88 µM; in experiment [6], 1.7 µM. Moreover, the GI50 in experiment [7] is 1.83 µM. In addition, the TGI was 3.06 µM in experiment [1]; 3.24 µM in experiment [2]; 2.78 µM in experiment [8]; 3.12 µM in experiment [4]; 3.43 µM in experiment [5]; 3.19 µM in experiment [6]. The same molecule displayed a TGI in experiment [7] of 3.52 µM.
`c1ccc(-c2n(Cc3ccc4ccccc4c3)cc[n+]2Cc2ccc3ccccc3c2)cc1`: the GI50 in experiment [1] was 1.07 µM; in experiment [8], 1.47 µM; in experiment [4] it was 1.77 µM; in experiment [6] it was 1.12 µM. Besides, the TGI is 2.35 µM in experiment [1], 2.87 µM in experiment [8], 3.43 µM in experiment [4] and 2.44 µM in experiment [6].
On to `COC(=O)C1(C)CC2C(C)(CCC3(C)C4=CC=C5C(=CC(=O)C(O)=C5C)C4(C)CCC23C)CC1O` (centres undefined), for which the TGI in experiment [1] was found to be 1.77 µM; in experiment [8], 3.19 µM; in experiment [3], 4.46 µM; in experiment [4], 1.53 µM; in experiment [6] it was 1.37 µM.
With `C/C(=N\n1c(O)c(C#N)cc(C#N)c1=O)c1ccncc1`, the GI50 in experiment [1], in experiment [2], in experiment [8], in experiment [3], in experiment [4] and in experiment [5] was more than 100 µM in each case. For the same molecule, the GI50 in experiment [7] was more than 100 µM. Further, the TGI in experiment [1], in experiment [2], in experiment [8], in experiment [3], in experiment [4] and in experiment [5] was more than 100 µM in each case. The molecule further displayed a TGI in experiment [7] of more than 100 µM.
For the molecule `O=C1c2cccnc2C(=O)c2c1c(C(=O)NCCn1ccnc1)c1ccccn21`, the GI50 in experiment [1] was 3.46 µM; in experiment [2], 2.96 µM; in experiment [8], 4.07 µM; in experiment [4], 2.75 µM; in experiment [5], 1.59 µM; in experiment [6], 3.88 µM. The GI50 in experiment [7] was 0.551 µM. Besides, the TGI in experiment [1] was more than 100 µM; in experiment [2], 9.18 µM; in experiment [8], 41.6 µM; in experiment [4], 36 µM; in experiment [5], 5.54 µM; in experiment [6], 15.7 µM. Also, the TGI in experiment [7] was determined as 2.29 µM.
With `OCc1ccc(N2CCc3cc(F)ccc3C2)cc1Cl`, the GI50 is 12.9 µM in experiment [1]; 0.0933 µM in experiment [2]; 1.7 µM in experiment [8]; 11.8 µM in experiment [4]; 9.7 µM in experiment [5]; 0.993 µM in experiment [6]. In addition, in experiment [7], the GI50 was 0.0583 µM. The TGI amounted to 26.2 µM in experiment [1]; 14 µM in experiment [2]; 18.4 µM in experiment [8]; 24.4 µM in experiment [4]; 24.5 µM in experiment [5]; 17.5 µM in experiment [6]. In addition, the TGI in experiment [7] came to 1.84 µM.
On to `O=CNc1ccc(S(=O)(=O)c2ccc(NC=O)cc2)cc1`, for which the TGI in experiment [1], in experiment [2], in experiment [8], in experiment [4], in experiment [5] and in experiment [7] was more than 100 µM each time.
For `O=C(O)c1c(Cl)c(Cl)c(Cl)c(Cl)c1C(=O)Nc1ccc2cn[nH]c2c1`, the TGI in experiment [1], in experiment [2], in experiment [8], in experiment [3], in experiment [4] and in experiment [6] was more than 100 µM each time. In experiment [7], this molecule gave a TGI of more than 100 µM.

The values are drawn from PubChem BioAssay (NCI).
